Data published in the kinase profiling compilation of Christmann-Franck et al. (2016).

Tests used:
Experiment in all cases: KINOMEscan competition binding
Conditions in all cases: compound 10.0 µM
CDC42BPG (human) = CDC42BPG (human) (UniProt Q6DT37)
RIOK3 (human) = RIOK3 (human) (UniProt O14730)
RPS6KA4 KD1 (human) = RPS6KA4 KD1 (human) (UniProt O75676)
CSK (human) = CSK (human) (UniProt P41240)
NTRK3 (human) = NTRK3 (human) (UniProt Q16288)
MATK (human) = MATK (human) (UniProt P42679)
BLK (human) = BLK (human) (UniProt P51451)
MAP2K2 (human) = MAP2K2 (human) (UniProt P36507)
FLT1 (human) = FLT1 (human) (UniProt P17948)
SNRK (human) = SNRK (human) (UniProt Q9NRH2)
CaMK1 (human) = CaMK1 (human) (UniProt Q14012)
MAPK8 (human) = MAPK8 (human) (UniProt P45983)
PRKG2 (human) = PRKG2 (human) (UniProt Q13237)
IRAK1 (human) = IRAK1 (human) (UniProt P51617)
CDK18 (human) = CDK18 (human) (UniProt Q07002)
STK17B (human) = STK17B (human) (UniProt O94768)
ANKK1 (human) = ANKK1 (human) (UniProt Q8NFD2)
MST1R (human) = MST1R (human) (UniProt Q04912)
TSSK1B (human) = TSSK1B (human) (UniProt Q9BXA7)
SGK110 (human) = SGK110 (human) (UniProt P0C264)
TNIK (human) = TNIK (human) (UniProt Q9UKE5)
BRSK1 (human) = BRSK1 (human) (UniProt Q8TDC3)
PAK1 (human) = PAK1 (human) (UniProt Q13153)
[1] = tested on: BMX (human), P51813 [V600E]
CDK4 CCND3 (human) = CDK4 CCND3 (human) (UniProt P11802+P30281)
HIPK1 (human) = HIPK1 (human) (UniProt Q86Z02)
[2] = tested on: EGFR (human), P00533 [G719C]
PLK3 (human) = PLK3 (human) (UniProt Q9H4B4)
[3] = biological target: TYK2 JH1 catalytic (human) (UniProt P29597)
[4] = tested on: FLT3 (human), P36888 [D835Y]
ERN1 (human) = ERN1 (human) (UniProt O75460)
PRPF4B (human) = PRPF4B (human) (UniProt Q13523)
MAP4K5 (human) = MAP4K5 (human) (UniProt Q9Y4K4)
MAPK15 (human) = MAPK15 (human) (UniProt Q8TD08)
NEK3 (human) = NEK3 (human) (UniProt P51956)
ADCK3 (human) = ADCK3 (human) (UniProt Q8NI60)
TLK1 (human) = TLK1 (human) (UniProt Q9UKI8)
RPS6KA1 KD2 (human) = RPS6KA1 KD2 (human) (UniProt Q15418)
NEK7 (human) = NEK7 (human) (UniProt Q8TDX7)
PHKG2 (human) = PHKG2 (human) (UniProt P15735)
PHKG2 (human), sequence (P15735 whole entry, looked up): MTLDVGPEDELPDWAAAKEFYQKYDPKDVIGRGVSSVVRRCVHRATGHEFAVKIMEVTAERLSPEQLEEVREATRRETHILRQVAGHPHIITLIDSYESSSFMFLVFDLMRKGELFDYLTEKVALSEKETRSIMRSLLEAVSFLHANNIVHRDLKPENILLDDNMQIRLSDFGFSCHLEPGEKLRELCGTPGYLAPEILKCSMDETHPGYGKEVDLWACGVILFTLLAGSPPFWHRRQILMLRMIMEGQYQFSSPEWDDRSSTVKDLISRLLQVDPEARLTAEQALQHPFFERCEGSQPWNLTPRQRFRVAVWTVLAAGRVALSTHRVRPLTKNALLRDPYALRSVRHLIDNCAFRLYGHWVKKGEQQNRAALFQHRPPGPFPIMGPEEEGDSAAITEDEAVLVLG

CaMK1 (human), sequence (Q14012 whole entry, looked up): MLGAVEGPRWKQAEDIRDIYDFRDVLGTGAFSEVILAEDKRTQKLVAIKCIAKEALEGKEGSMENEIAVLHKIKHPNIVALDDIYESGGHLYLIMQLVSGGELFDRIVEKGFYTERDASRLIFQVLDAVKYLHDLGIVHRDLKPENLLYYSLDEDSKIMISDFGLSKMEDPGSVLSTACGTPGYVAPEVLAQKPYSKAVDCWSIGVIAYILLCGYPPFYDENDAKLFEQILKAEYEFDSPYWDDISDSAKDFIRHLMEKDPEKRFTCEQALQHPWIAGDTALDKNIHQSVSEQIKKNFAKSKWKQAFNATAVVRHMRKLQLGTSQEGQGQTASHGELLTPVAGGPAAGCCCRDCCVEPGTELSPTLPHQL
RPS6KA4 KD1 (human), sequence (O75676 whole entry, looked up): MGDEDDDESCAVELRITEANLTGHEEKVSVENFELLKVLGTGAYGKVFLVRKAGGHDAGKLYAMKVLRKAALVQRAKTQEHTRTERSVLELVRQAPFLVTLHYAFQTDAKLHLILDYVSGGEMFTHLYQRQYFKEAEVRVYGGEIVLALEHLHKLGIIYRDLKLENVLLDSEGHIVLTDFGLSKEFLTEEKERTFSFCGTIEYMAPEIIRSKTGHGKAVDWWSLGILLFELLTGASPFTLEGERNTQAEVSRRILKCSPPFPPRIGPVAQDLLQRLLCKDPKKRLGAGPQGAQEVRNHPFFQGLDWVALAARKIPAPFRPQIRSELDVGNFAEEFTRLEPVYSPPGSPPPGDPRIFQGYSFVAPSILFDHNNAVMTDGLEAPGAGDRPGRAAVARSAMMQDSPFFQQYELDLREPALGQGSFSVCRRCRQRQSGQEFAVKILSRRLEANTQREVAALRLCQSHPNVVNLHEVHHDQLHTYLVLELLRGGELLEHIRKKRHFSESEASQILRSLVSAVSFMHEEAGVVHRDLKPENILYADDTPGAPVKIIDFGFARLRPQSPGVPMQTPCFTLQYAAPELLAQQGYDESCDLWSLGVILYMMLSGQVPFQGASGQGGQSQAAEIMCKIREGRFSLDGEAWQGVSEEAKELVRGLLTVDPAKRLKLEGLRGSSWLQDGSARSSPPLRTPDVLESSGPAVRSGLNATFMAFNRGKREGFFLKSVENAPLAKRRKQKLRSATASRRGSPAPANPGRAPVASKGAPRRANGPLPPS
PRKG2 (human), sequence (Q13237 whole entry, looked up): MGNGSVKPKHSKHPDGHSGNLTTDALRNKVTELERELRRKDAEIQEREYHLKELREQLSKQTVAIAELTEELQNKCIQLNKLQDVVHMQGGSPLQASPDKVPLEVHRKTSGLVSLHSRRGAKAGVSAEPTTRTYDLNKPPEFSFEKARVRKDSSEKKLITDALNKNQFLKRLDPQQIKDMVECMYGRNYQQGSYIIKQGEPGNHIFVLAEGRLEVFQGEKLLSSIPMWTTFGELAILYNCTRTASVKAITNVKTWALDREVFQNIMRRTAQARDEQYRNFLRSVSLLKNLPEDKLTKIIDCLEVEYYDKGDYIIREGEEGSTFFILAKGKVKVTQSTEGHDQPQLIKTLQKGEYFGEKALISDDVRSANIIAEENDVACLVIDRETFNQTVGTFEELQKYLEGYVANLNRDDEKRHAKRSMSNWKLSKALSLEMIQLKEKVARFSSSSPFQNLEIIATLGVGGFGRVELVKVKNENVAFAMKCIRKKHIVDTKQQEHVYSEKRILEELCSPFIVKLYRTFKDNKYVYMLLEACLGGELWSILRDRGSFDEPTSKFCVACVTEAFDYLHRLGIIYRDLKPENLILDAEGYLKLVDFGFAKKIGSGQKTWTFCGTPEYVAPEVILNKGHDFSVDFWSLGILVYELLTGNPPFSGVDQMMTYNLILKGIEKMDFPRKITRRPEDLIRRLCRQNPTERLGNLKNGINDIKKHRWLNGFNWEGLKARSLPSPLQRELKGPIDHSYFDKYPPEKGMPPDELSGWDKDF
NEK3 (human), sequence (P51956 whole entry, looked up): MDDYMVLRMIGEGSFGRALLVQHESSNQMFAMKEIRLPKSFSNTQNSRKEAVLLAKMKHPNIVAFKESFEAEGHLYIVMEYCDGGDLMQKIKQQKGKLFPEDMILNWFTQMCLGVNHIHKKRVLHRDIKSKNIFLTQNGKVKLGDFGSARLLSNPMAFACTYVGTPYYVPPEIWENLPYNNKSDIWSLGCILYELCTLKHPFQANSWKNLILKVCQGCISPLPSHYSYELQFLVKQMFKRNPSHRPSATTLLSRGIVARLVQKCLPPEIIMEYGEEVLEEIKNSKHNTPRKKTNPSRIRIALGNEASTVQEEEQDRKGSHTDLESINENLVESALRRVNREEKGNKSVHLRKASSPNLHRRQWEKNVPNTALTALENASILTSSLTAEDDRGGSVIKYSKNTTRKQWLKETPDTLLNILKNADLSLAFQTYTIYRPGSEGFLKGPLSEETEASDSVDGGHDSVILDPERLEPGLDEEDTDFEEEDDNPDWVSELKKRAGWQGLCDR
CDC42BPG (human), sequence (Q6DT37 whole entry, looked up): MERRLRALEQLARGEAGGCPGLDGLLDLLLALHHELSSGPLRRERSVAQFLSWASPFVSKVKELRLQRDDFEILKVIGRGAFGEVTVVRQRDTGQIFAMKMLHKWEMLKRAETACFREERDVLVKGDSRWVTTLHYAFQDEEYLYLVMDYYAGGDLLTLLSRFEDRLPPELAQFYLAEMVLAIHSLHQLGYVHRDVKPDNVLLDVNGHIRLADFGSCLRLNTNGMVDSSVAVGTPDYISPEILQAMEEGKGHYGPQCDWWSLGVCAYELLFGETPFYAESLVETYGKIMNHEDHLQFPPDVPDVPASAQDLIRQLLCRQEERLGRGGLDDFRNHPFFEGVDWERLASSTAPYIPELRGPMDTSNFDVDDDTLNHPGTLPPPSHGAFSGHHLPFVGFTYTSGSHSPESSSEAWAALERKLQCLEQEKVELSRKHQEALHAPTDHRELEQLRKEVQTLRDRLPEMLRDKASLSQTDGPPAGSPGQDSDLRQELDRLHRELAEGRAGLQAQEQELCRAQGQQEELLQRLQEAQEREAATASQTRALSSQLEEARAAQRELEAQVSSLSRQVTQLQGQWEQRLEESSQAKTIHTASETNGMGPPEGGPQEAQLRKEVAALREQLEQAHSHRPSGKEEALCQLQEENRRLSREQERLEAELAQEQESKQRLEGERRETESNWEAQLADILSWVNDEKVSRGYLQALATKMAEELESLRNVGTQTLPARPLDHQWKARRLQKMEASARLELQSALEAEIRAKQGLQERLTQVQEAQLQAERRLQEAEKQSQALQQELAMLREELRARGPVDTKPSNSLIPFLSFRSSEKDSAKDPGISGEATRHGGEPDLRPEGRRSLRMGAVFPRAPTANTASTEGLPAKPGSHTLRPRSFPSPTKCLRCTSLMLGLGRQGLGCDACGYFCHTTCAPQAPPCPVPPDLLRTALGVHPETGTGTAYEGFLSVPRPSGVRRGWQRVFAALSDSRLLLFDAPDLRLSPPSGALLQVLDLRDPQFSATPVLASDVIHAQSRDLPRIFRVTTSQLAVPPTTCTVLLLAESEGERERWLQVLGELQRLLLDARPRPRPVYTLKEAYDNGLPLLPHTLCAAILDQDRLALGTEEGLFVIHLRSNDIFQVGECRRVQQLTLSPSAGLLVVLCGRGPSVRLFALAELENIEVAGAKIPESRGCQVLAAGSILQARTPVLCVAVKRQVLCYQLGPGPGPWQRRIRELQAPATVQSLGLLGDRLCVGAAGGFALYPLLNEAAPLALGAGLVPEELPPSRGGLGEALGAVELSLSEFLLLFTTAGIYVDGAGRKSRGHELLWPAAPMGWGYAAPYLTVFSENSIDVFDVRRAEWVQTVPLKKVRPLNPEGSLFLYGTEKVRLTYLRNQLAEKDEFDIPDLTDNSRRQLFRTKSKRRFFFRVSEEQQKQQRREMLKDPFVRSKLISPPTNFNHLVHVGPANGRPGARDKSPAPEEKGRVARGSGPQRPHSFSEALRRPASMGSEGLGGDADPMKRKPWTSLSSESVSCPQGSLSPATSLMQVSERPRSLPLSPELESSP
ADCK3 (human), sequence (Q8NI60 whole entry, looked up): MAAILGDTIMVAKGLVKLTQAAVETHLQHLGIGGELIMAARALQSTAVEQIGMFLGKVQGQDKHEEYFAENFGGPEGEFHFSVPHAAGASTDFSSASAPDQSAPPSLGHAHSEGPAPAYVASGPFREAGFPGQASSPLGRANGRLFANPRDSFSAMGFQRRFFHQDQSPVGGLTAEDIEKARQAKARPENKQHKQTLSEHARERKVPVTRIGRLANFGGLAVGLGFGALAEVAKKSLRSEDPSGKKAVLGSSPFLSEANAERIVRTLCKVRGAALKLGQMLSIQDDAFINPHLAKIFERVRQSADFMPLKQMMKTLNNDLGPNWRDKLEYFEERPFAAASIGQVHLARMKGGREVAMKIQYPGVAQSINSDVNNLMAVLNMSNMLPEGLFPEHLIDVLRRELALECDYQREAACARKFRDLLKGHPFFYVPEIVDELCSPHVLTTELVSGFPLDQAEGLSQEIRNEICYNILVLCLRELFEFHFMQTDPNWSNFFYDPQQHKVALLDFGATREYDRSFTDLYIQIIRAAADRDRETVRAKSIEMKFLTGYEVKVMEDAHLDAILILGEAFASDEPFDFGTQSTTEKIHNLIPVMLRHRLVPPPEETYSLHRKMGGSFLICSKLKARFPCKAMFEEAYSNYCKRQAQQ

Structure (SMILES): COc1cc2c(Nc3ccc(NC(=O)c4ccccc4)cc3)ncnc2cc1OCCCN1CCOCC1
- kinase still bound, per cent of control (CDC42BPG (human)): 72%
- kinase still bound, per cent of control (RIOK3 (human)): 100%
- kinase still bound, per cent of control (RPS6KA4 KD1 (human)): 100%
- kinase still bound, per cent of control (CSK (human)): 7.9%
- kinase still bound, per cent of control (NTRK3 (human)): 98%
- kinase still bound, per cent of control (MATK (human)): 100%
- kinase still bound, per cent of control (BLK (human)): 0.5%
- kinase still bound, per cent of control (MAP2K2 (human)): 0.1%
- kinase still bound, per cent of control (FLT1 (human)): 56%
- kinase still bound, per cent of control (SNRK (human)): 81%
- kinase still bound, per cent of control (CaMK1 (human)): 55%
- kinase still bound, per cent of control (MAPK8 (human)): 67%
- kinase still bound, per cent of control (PRKG2 (human)): 91%
- kinase still bound, per cent of control (IRAK1 (human)): 66%
- kinase still bound, per cent of control (CDK18 (human)): 75%
- kinase still bound, per cent of control (STK17B (human)): 100%
- kinase still bound, per cent of control (ANKK1 (human)): 17%
- kinase still bound, per cent of control (MST1R (human)): 3.9%
- kinase still bound, per cent of control (TSSK1B (human)): 100%
- kinase still bound, per cent of control (SGK110 (human)): 100%
- kinase still bound, per cent of control (TNIK (human)): 51%
- kinase still bound, per cent of control (BRSK1 (human)): 79%
- kinase still bound, per cent of control (PAK1 (human)): 82%
- kinase still bound, per cent of control [1]: 100%
- kinase still bound, per cent of control (CDK4 CCND3 (human)): 100%
- kinase still bound, per cent of control (HIPK1 (human)): 14%
- kinase still bound, per cent of control [2]: 0.45%
- kinase still bound, per cent of control (PLK3 (human)): 99%
- kinase still bound, per cent of control [3]: 84%
- kinase still bound, per cent of control [4]: 44%
- kinase still bound, per cent of control (ERN1 (human)): 74%
- kinase still bound, per cent of control (PRPF4B (human)): 97%
- kinase still bound, per cent of control (MAP4K5 (human)): 2.7%
- kinase still bound, per cent of control (MAPK15 (human)): 100%
- kinase still bound, per cent of control (NEK3 (human)): 100%
- kinase still bound, per cent of control (ADCK3 (human)): 90%
- kinase still bound, per cent of control (TLK1 (human)): 78%
- kinase still bound, per cent of control (RPS6KA1 KD2 (human)): 72%
- kinase still bound, per cent of control (NEK7 (human)): 100%
- kinase still bound, per cent of control (PHKG2 (human)): 76%
